In this assay the target is LSD1 (Homo sapiens (Human), UniProt O60341). Nature of the assay: LSD1 histone demethylase assay (LSD1 Inhibitor Screening Assay Kit, Cayman Chemical). Type of assay: biochemical. The following applies: H2O2/resorufin fluorescence readout, dimethyl K4 H3 peptide substrate. As to the method: Recombinant (expressed in baculovirus infected BTI insect cells) monoamine oxidase A and monoamine oxidase B (Catalog No. M7316 and M7441, respectively) were purchased from Sigma-Aldrich Co. LLC. (St. Louis, Mo.). MAO-Glo™ Assay Kit was purchased from Promega Corporation (Madison, Wis.). ATPlite™ Luminescence Assay System (e.g. Catalog No. V1401) was purchased from PerkinElmer Inc. (Waltham, Mass.).
IC50 values are determined using GraphPad Prism 5 software. The data were entered as an X-Y plot into the software as percent inhibition for each concentration of the drug. The concentration values of the drug were log transformed and the nonlinear regression was carried out using the “sigmoidal dose-response (variable slope)” option within the GraphPad software to model the data and calculate IC50 values.

The text below walks through data of patent US9556170B2, “Substituted-1H-benzo[d]imidazole series compounds as lysine-specific demethylase 1 (LSD1) inhibitors” (University of Utah, priority 2013, dated 2017).

For `CN1CCN(S(=O)(=O)c2ccc3[nH]c(Nc4cc(Cl)ccc4O)nc3c2)CC1` [Compound 2, 4-chloro-2-((5-((4-methylpiperazin-1-yl)sulfonyl)-1H-benzo[d]imidazol-2-yl)amino)phenol], the IC50 (in general, the concentration that gives 50% inhibition) was determined as 0.273 µM.

Consider `O=S(=O)(c1ccc2[nH]c(Nc3cc(Cl)ccc3O)nc2c1)N1CCNCC1` [Compound 3], for which the IC50 was determined as 0.081 µM.
